Assay results taken from article PMC11396839, “Structure-Aided Computational Design of Triazole-Based Targeted Covalent Inhibitors of Cruzipain” (Molecules, 2024).
Like-named read-outs stand apart in the source and are kept apart here.

Tests used:
[1] = target: T1, recombinant CZP (cruzain) (Trypanosoma cruzi, UniProt P25779); assay: CZP inhibition, cleavage of fluorogenic substrate Z-FR-AMC (initial screening and IC50); assay type: biochemical, T. cruzi; conditions: for times lower potency than the most active analogues (Ald-6 and Ald-10): CZP IC50 ratio
T1 construct: gift of Allison Doak and Prof; Brian Shoichet (University of California San Francisco)
T1 sequence (P25779 123-337): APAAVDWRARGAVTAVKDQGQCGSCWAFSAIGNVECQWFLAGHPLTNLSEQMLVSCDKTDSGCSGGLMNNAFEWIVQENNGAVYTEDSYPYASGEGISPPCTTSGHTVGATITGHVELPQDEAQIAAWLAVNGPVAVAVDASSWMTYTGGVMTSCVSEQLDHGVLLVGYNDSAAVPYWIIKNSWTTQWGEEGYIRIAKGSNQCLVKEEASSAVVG
Procedure: The previously reported methods were followed to evaluate the in vitro activity against CZP [91, 92, 93, 94]. Allison Doak and Prof. Brian Shoichet (University of California San Francisco, San Francisco, CA, USA) generously provided recombinant CZP (cruzain). The enzyme activity was measured by monitoring the cleavage of the fluorogenic substrate Z-FR-AMC at 25 °C. Unless stated otherwise, assays were performed using 2.5 μ M of substrate ( KM = 0.5 ± 0.1 μ M) and 0.5 nM CZP in a 0.1 M sodium acetate buffer, pH 5.5, 0.01% Triton X-100 and 2 mM β -mercaptoethanol. DMSO and 1 μ M E-64 were employed as negative and positive controls, respectively, in all assays. Fluorescence was monitored at 340/440 nm (excitation/emission) over time in a Biotec 87 Synergy 2 fluorimeter at the Multiuser Laboratory of the Biochemistry and Immunology Department (UFMG, Belo Horizonte, Brazil). All assays were performed in triplicate in two independent experiments.
Initial screening. For the initial screening against CZP, compounds at 100 μ M were tested against CZP with and without a 10min pre-incubation with the enzyme. The fluorescence was monitored for 10 min at 5 s intervals. DMSO and E-64 were employed in all assays as negative and positive controls, respectively. Initial velocities of the negative control (DMSO) were compared to those in the presence of compounds to calculate the percentage of inhibition. The reported values correspond to the mean and standard error of the mean (SEM) of experiments performed in triplicate in two independent experiments.
IC50 determination. Compounds in at least eight distinct compound concentrations (400 μ M, 100 μ M, 25 μ M, 6.25 μ M, 1.5 μ M, 0.4 μ M, 0.1 μ M and 0.025 μ M) were incubated with CZP for 10 min, and once the substrate was added, the fluorescence was monitored for 10 min at 5 s intervals. IC50 curves were obtained from a non-linear fit of the inhibition values versus the logarithmic concentration of the compounds. The reported IC50 values are the mean and SEM of two independent measurements performed in triplicate.

[2] = target: T2, recombinant human cathepsin L (hCatL) (Homo sapiens, UniProt P07711); assay: hCatL screening, cleavage of Z-FR-AMC; assay type: biochemical; conditions: for inhibition at 100 µM: read-out: % hCatL inhib.
T2 construct: purchased Sigma-Aldrich
T2 sequence (P07711 114-333): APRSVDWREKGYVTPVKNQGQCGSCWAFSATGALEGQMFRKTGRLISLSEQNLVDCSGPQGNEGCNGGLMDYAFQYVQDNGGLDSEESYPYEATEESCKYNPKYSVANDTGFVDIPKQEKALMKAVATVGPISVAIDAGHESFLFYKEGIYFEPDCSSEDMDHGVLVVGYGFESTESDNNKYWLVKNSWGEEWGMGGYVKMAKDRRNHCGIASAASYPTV
Procedure: The recombinant human cathepsin L (hCatL) (Sigma-Aldrich) was activated prior to the assays. First, 10 ng/ μ L of the enzyme was incubated in the activation buffer (50 mM MES, pH 6, 1 mM EDTA, 5mM DTT) for 30 min at 37 °C. hCatL activity was measured based on the cleavage of the fluorescent substrate Z-FR-AMC in a Biotec 87 Synergy 2 fluorimeter at the Multiuser Laboratory of the Biochemistry and Immunology Department (UFMG, Brazil). The assays were executed in 96-well round bottom black plates in 50 mM MES buffer, pH 6, containing 1 mM EDTA, 5 mM DTT, 0.001% Triton-X100, 5 pg/ μ L enzyme and 25 μ M Z-FR-AMC at 37 °C. The triazole-based derivatives were tested against hCatL, at 100 μ M, with a 10 min pre-incubation with the enzyme. The initial velocities of the DMSO control were compared to those in the presence of the compounds. Assays were executed in triplicate in two independent experiments, and enzyme activity was measured for 20 min.

[3] = test system: T. cruzi (Tulahuen trypomastigotes overexpressing β-galactosidase) in Vero cells; assay: T. cruzi inhibition assay, infection model in Vero cells, β-galactosidase activity; assay type: cell-based, Trypanosoma cruzi; conditions: 50 μM (Ald-4 20 μM)
Procedure: To perform the assay, the drug screening method reported by Buckner et al. was adapted. Vero cells were seeded at 1 × 10^4 per well on 96-well culture plates in 100 μ L MEM-5% FBS. Tulahuen trypomastigotes overexpressing the E. coli β -galactosidase protein were distributed in triplicates on the plate. After a 2 h incubation at 37 °C, the culture media were extracted and replaced with fresh MEM-5% FBS with 1 μ M, 10 μ M or 50 μ M solutions of the triazole-based inhibitors, and the plate was incubated another 72 h at 37 °C. Ninety-six hours post infection, the cell culture media were removed and cells and intracellular amastigotes were lysed in 100 μ L lysis buffer (25 mM Tris pH 8, 2 mM EDTA, 2 mM DTT, 1% Triton X-100, 10% glycerol in ultrapure MQ water) for 10 min at 37 °C. Then, 100 μ L 2× reaction buffer (200 mM sodium phosphate pH 8, 2 mM MgCl2, 100 mM 2-mercaptoethanol and 1.33 mg.mL^−1 o-nitrophenyl- β -galactoside (ONPG)) was added and the reaction was allowed to proceed until a yellow color developed (1–2 h at 37 °C). The absorbance at 420 nm was measured in a Synergy HTX multi-mode microplate reader (Biotek Instruments, Winooski, VT, USA) and normalized to the value obtained for the infection in the absence of inhibitors. To determine its IC50, Ald-6 was evaluated at nine different concentrations (0.098, 0.195, 0.39, 0.78, 1.56 3.13 6.25, 12.5 and 50.0 μ M), following the same protocol. Each infection condition and inhibitor were tested in triplicates in four independent experiments.

[4] = 100 μM, 10 min pre-incubation of the enzyme with compound, read-out: % CZP inh.
[5] = 10 min incubation with CZP, mean ± SEM of two independent experiments, read-out: IC50 (μM) against CZP

Row | SMILES | inhibition at 100 µM [1, 4] [%] | further results
1 | COC(=O)C(C)n1cc(C(NCc2ccc3c(c2)OCO3)C2CCCCC2)nn1 (stereo not drawn) [Es-8] | 8 ± 7 | 
2 | COC(=O)C(Cc1c[nH]c2ccccc12)n1cc(C(NCc2ccc3c(c2)OCO3)C2CCCCC2)nn1 (stereo not drawn) [Es-12] | 15 ± 2 | 
3 | O=CC(Cc1c[nH]c2ccccc12)n1cc(C(C2CCCCC2)N2CCc3ccccc3C2)nn1 (stereo not drawn) [Ald-22] | 55 ± 9 | 
4 | O=CC(c1ccccc1)n1cc(C(C2CCCCC2)N2CCc3ccccc3C2)nn1 (stereo not drawn) [Ald-19] | 3 ± 10 | 
5 | CCOC(=O)C(CCSC)n1cc(C(C2CCCCC2)N2CCc3ccccc3C2)nn1 (stereo not drawn) [Es-18] | 0 | 
6 | COC(=O)C(Cc1ccc(O)cc1)n1cc(C(C2CCCCC2)N2CCc3ccccc3C2)nn1 (stereo not drawn) [Es-23] | 1 ± 14 | 
7 | COC(=O)C(CCCNC(=N)N)n1cc(C(C2CCCCC2)N2CCc3ccccc3C2)nn1 (stereo not drawn) [Es-24] | 6 ± 1 | 
8 | COC(=O)C(Cc1ccc(O)cc1)n1cc(C(NCc2ccc3c(c2)OCO3)C2CCCCC2)nn1 (stereo not drawn) [Es-13] | 8 ± 1 | 
9 | O=CC(Cc1c[nH]cn1)n1cc(C(C2CCCCC2)N2CCc3ccccc3C2)nn1 (stereo not drawn) [Ald-17] | 38 ± 6 | 
10 | O=CC(Cc1c[nH]cn1)n1cc(C(NCc2ccc3c(c2)OCO3)C2CCCCC2)nn1 (stereo not drawn) [Ald-4] | 83 ± 2 | IC50 [1, 5]: 5 ± 2 µM; selectivity for CZP over hCatL in words ([2]; 100 μM): selective CZP inhibitors; inhibition at 100 µM ([2]; 10 min incubation): 10 ± 3%; anti-T. cruzi/cytotoxicity balance in words [3]: acceptable anti-T. cruzi/cytotoxicity balance
11 | O=CC(c1ccccc1)n1cc(C(NCc2ccc3c(c2)OCO3)C2CCCCC2)nn1 (stereo not drawn) [Ald-9] | 11 ± 3 | 
12 | COC(=O)C(Cc1c[nH]c2ccccc12)n1cc(C(C2CCCCC2)N2CCc3ccccc3C2)nn1 (stereo not drawn) [Es-22] | 1 ± 6 | 
13 | COC(=O)C(C(C)C)n1cc(C(NCc2ccc3c(c2)OCO3)C2CCCCC2)nn1 (stereo not drawn) [Es-2] | 9 ± 7 | 
14 | CC(O)C(C=O)n1cc(C(C2CCCCC2)N2CCc3ccccc3C2)nn1 (stereo not drawn) [Ald-21] | 8 ± 7 | 
15 | O=CC(CO)n1cc(C(C2CCCCC2)N2CCc3ccccc3C2)nn1 (stereo not drawn) [Ald-20] | 83 ± 3 | IC50 [1]: 7 ± 4 µM; selectivity for CZP over hCatL in words ([2]; 100 μM): selective CZP inhibitors; inhibition at 100 µM ([2]; 10 min incubation): 0%; anti-T. cruzi/cytotoxicity balance in words [3]: acceptable anti-T. cruzi/cytotoxicity balance
16 | COC(=O)C(C(C)O)n1cc(C(NCc2ccc3c(c2)OCO3)C2CCCCC2)nn1 (stereo not drawn) [Es-11] | 0 | 
17 | CSCCC(C=O)n1cc(C(C2CCCCC2)N2CCc3ccccc3C2)nn1 (stereo not drawn) [Ald-18] | 16 ± 4 | 
18 | CC(C)C[C@H](NC(=O)[C@H]1O[C@@H]1C(=O)O)C(=O)NCCCCN=C(N)N [E-64, reference compound] |  | CZP inhibition by positive control ([1]; 1 μM, 10 min preincubation): 98%; % CZP inh. ([1]; 100 μM, 10 min pre-incubation of the enzyme with compound): 98 ± 2%; % CZP inhib. wo/inc. ([1]; 100 μM, without prior incubation): 12± 8%; % hCatL inhib. ([2]; 100 μM, 10 min incubation): 97 ± 3%
19 | COC(=O)C(C(C)O)n1cc(C(C2CCCCC2)N2CCc3ccccc3C2)nn1 (stereo not drawn) [Es-21] | 0 | 

Row | SMILES | inhibition at 100 µM [1, 4] [%] | further results
20 | O=CC(CCC(=O)O)n1cc(C(NCc2ccc3c(c2)OCO3)C2CCCCC2)nn1 (stereo not drawn) [Ald-3] | 8 ± 2 | CZP inhibitory activity in words [1]: not active at all
21 | COC(=O)C(CCC(=O)O)n1cc(C(NCc2ccc3c(c2)OCO3)C2CCCCC2)nn1 (stereo not drawn) [Es-3] | 8 ± 7 | 
22 | O=CC(Cc1ccccc1)n1cc(C(NCc2ccc3c(c2)OCO3)C2CCCCC2)nn1 (stereo not drawn) [Ald-1] | 64 ± 5 | IC50 [1]: 41 ± 4 µM; times lower potency than the most active analogues (Ald-6 and Ald-10) [1]: 12.4; selectivity for CZP over hCatL in words ([2]; 100 μM): selective CZP inhibitors; inhibition at 100 µM ([2]; 10 min incubation): 0%
23 | O=CC(Cc1c[nH]c2ccccc12)n1cc(C(NCc2ccc3c(c2)OCO3)C2CCCCC2)nn1 (stereo not drawn) [Ald-12] | 56 ± 7 | IC50 [1, 5]: 45.4 ± 0.3 µM; times lower potency than the most active analogues (Ald-6 and Ald-10) [1]: 13.8; selectivity for CZP over hCatL in words ([2]; 100 μM): selective CZP inhibitors; inhibition at 100 µM ([2]; 10 min incubation): 0%
24 | COC(=O)[C@H](CCCCN)n1cc(C(NCc2ccc3c(c2)OCO3)C2CCCCC2)nn1 (stereo partly drawn) [Es-6] | 9 ± 2 | 
25 | COC(=O)C(c1ccccc1)n1cc(C(NCc2ccc3c(c2)OCO3)C2CCCCC2)nn1 (stereo not drawn) [Es-9] | 6 ± 5 | 
26 | COC(=O)C(Cc1c[nH]cn1)n1cc(C(NCc2ccc3c(c2)OCO3)C2CCCCC2)nn1 (stereo not drawn) [Es-4] | 5 ± 4 | 
27 | COC(=O)[C@H](Cc1ccccc1)n1cc(C(NCc2ccc3c(c2)OCO3)C2CCCCC2)nn1 (stereo partly drawn) [Es-1] | 15 ± 2 | 
28 | COC(=O)C(c1ccccc1)n1cc(C(C2CCCCC2)N2CCc3ccccc3C2)nn1 (stereo not drawn) [Es-19] | 0 | 
29 | O=CC(Cc1ccccc1)n1cc(C(C2CCCCC2)N2CCc3ccccc3C2)nn1 (stereo not drawn) [Ald-16] | 34 ± 5 | 
30 | COC(=O)C(CC(C)C)n1cc(C(NCc2ccc3c(c2)OCO3)C2CCCCC2)nn1 (stereo not drawn) [Es-5] | 5 ± 2 | 
31 | CCOC(=O)C(Cc1ccccc1)n1cc(C(C2CCCCC2)N2CCc3ccccc3C2)nn1 (stereo not drawn) [Es-16] | 13 ± 6 | 
32 | COC(=O)C(CO)n1cc(C(C2CCCCC2)N2CCc3ccccc3C2)nn1 (stereo not drawn) [Es-20] | 5 ± 4 | 
33 | CC(C)CC(C=O)n1cc(C(NCc2ccc3c(c2)OCO3)C2CCCCC2)nn1 (stereo not drawn) [Ald-5] | 64 ± 2 | IC50 [1]: 7 ± 2 µM; selectivity for CZP over hCatL in words ([2]; 100 μM): selective CZP inhibitors; inhibition at 100 µM ([2]; 10 min incubation): 24 ± 9%
34 | COC(=O)C(Cc1c[nH]cn1)n1cc(C(C2CCCCC2)N2CCc3ccccc3C2)nn1 (stereo not drawn) [Es-17] | 6 ± 3 | 
35 | CSCCC(C=O)n1cc(C(NCc2ccc3c(c2)OCO3)C2CCCCC2)nn1 (stereo not drawn) [Ald-7] | 42 ± 7 | 
36 | O=CC(Cc1ccc(O)cc1)n1cc(C(NCc2ccc3c(c2)OCO3)C2CCCCC2)nn1 (stereo not drawn) [Ald-13] | 83 ± 2 | IC50 [1, 5]: 13 ± 5 µM; times lower potency than the most active analogues (Ald-6 and Ald-10) [1]: 3.9; selectivity for CZP over hCatL in words ([2]; 100 μM): selective CZP inhibitors; inhibition at 100 µM ([2]; 10 min incubation): 0%
37 | CC(O)C(C=O)n1cc(C(NCc2ccc3c(c2)OCO3)C2CCCCC2)nn1 (stereo not drawn) [Ald-11] | 58 ± 4 | 
38 | COC(=O)C(CO)n1cc(C(NCc2ccc3c(c2)OCO3)C2CCCCC2)nn1 (stereo not drawn) [Es-10] | ≥ 47 | inhibition at 100 µM ([1]; read-out: % CZP inhib. wo/inc., 100 μM, without prior incubation): 43 ± 4%
